Experimental data from PubChem BioAssay (NCI).
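Each compound was tested at five concentrations against cells in 96-well plates for 48 hours. Abbreviation: GI50, concentration required for 50% inhibition of growth. At the TGI there is no net growth.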

Columns and labels:
Test in all cases: NCI-60 cell line screen, 48 h; in the data active means GI50 below about 0.43 µM; inactive means the rest
HOP-18 NSCLC = system: HOP-18 NSCLC
DLD-1 colon = system: DLD-1 colon
K-562 leukemia = system: K-562 leukemia
SK-OV-3 ovarian = system: SK-OV-3 ovarian
SNB-78 CNS = system: SNB-78 CNS
UACC-257 melanoma = system: UACC-257 melanoma
SF-539 CNS = system: SF-539 CNS
KM12 colon = system: KM12 colon
NCI-H460 lung = system: NCI-H460 lung
DMS 114 small cell lung = system: DMS 114 small cell lung
HCT-15 colon = system: HCT-15 colon
OVCAR-3 ovarian = system: OVCAR-3 ovarian
M19-MEL melanoma = system: M19-MEL melanoma
TK-10 renal = system: TK-10 renal
HCC-2998 colon = system: HCC-2998 colon
HCT-116 colon = system: HCT-116 colon
KM20L2 colon = system: KM20L2 colon
CCRF-CEM leukemia = system: CCRF-CEM leukemia
LOX IMVI melanoma = system: LOX IMVI melanoma
UACC-62 melanoma = system: UACC-62 melanoma
SNB-19 CNS = system: SNB-19 CNS
SK-MEL-2 melanoma = system: SK-MEL-2 melanoma
A498 renal = system: A498 renal
RPMI-8226 leukemia = system: RPMI-8226 leukemia
RXF-631 renal = system: RXF-631 renal
SW-620 colon = system: SW-620 colon
SK-MEL-5 melanoma = system: SK-MEL-5 melanoma
SF-268 CNS = system: SF-268 CNS
SK-MEL-28 melanoma = system: SK-MEL-28 melanoma
MOLT-4 leukemia = system: MOLT-4 leukemia
SN12C renal = system: SN12C renal
U251 CNS = system: U251 CNS
RXF 393 renal = system: RXF 393 renal
ACHN renal = system: ACHN renal
NCI-H23 lung = system: NCI-H23 lung
EKVX NSCLC = system: EKVX NSCLC
HL-60(TB) leukemia = system: HL-60(TB) leukemia
OVCAR-5 ovarian = system: OVCAR-5 ovarian
DMS 273 small cell lung = system: DMS 273 small cell lung
M14 melanoma = system: M14 melanoma
OVCAR-4 ovarian = system: OVCAR-4 ovarian
HOP-62 NSCLC = system: HOP-62 NSCLC
SR leukemia = system: SR leukemia
786-0 renal = system: 786-0 renal
MALME-3M melanoma = system: MALME-3M melanoma
HT29 colon = system: HT29 colon
OVCAR-8 ovarian = system: OVCAR-8 ovarian
LXFL 529 NSCLC = system: LXFL 529 NSCLC
HOP-92 NSCLC = system: HOP-92 NSCLC
SNB-75 CNS = system: SNB-75 CNS
COLO 205 colon = system: COLO 205 colon
UO-31 renal = system: UO-31 renal
IGROV1 ovarian = system: IGROV1 ovarian
A549 NSCLC = system: A549 NSCLC
SF-295 CNS = system: SF-295 CNS
CAKI-1 renal = system: CAKI-1 renal
NCI-H522 lung = system: NCI-H522 lung
NCI-H226 lung = system: NCI-H226 lung
XF 498 CNS = system: XF 498 CNS

O=[N+]([O-])c1cc(/C=N\NS(=O)(=O)c2ccc(Cl)cc2)c(O)c([N+](=O)[O-])c1
80.9 µM: TGI (RPMI-8226 leukemia)
83.5 µM: TGI (SK-OV-3 ovarian)
99.6 µM: TGI (M14 melanoma)
66.6 µM: TGI (SK-MEL-5 melanoma)
87.4 µM: TGI (SN12C renal)
50.8 µM: TGI (NCI-H23 lung)
67.1 µM: TGI (KM12 colon)
79.5 µM: TGI (K-562 leukemia) | TGI (SNB-19 CNS)
54.4 µM: TGI (NCI-H460 lung)
91.9 µM: TGI (RXF 393 renal)
64.5 µM: TGI (OVCAR-8 ovarian)
> 100 µM: TGI (HOP-18 NSCLC) | TGI (DLD-1 colon) | TGI (SNB-78 CNS) | TGI (UACC-257 melanoma) | TGI (DMS 114 small cell lung) | TGI (M19-MEL melanoma) | TGI (TK-10 renal) | TGI (HCC-2998 colon) | TGI (HCT-116 colon) | TGI (LOX IMVI melanoma) | TGI (UACC-62 melanoma) | TGI (SK-MEL-2 melanoma) | TGI (RXF-631 renal) | TGI (SW-620 colon) | TGI (SF-268 CNS) | TGI (SK-MEL-28 melanoma) | TGI (ACHN renal) | TGI (EKVX NSCLC) | TGI (OVCAR-5 ovarian) | TGI (OVCAR-4 ovarian) | TGI (HOP-62 NSCLC) | TGI (786-0 renal) | TGI (MALME-3M melanoma) | TGI (LXFL 529 NSCLC) | TGI (HOP-92 NSCLC) | TGI (UO-31 renal) | TGI (IGROV1 ovarian) | TGI (A549 NSCLC) | TGI (SF-295 CNS) | TGI (CAKI-1 renal)
73.3 µM: TGI (DMS 273 small cell lung)
74.1 µM: TGI (KM20L2 colon)
78.5 µM: TGI (CCRF-CEM leukemia)
31 µM: TGI (COLO 205 colon)
45.2 µM: TGI (SR leukemia)
73.5 µM: TGI (SNB-75 CNS)
54 µM: TGI (HL-60(TB) leukemia)
83 µM: TGI (A498 renal)
44.2 µM: TGI (SF-539 CNS)
86 µM: TGI (MOLT-4 leukemia)
58.9 µM: TGI (HT29 colon)
53.1 µM: TGI (HCT-15 colon)
54.3 µM: TGI (U251 CNS)
54.1 µM: TGI (OVCAR-3 ovarian)
52.4 µM: TGI (NCI-H522 lung)

CN1CCC(c2c(O)cc(O)c3c(=O)cc(-c4ccccc4Cl)oc23)C(O)C1 (configuration not stated)
0.135 µM: TGI (EKVX NSCLC)
0.448 µM: TGI (NCI-H522 lung)
> 56.3 µM: TGI (HT29 colon)
0.584 µM: TGI (XF 498 CNS)
active: GI50 (K-562 leukemia) 0.297 µM | GI50 (SF-539 CNS) 0.288 µM | GI50 (HCT-15 colon) 0.0506 µM | GI50 (OVCAR-3 ovarian) < 0.01 µM | GI50 (KM20L2 colon) 0.262 µM | GI50 (UACC-62 melanoma) 0.0506 µM | GI50 (SW-620 colon) 0.0532 µM | GI50 (OVCAR-5 ovarian) 0.0687 µM | GI50 (SNB-75 CNS) 0.0482 µM | GI50 (IGROV1 ovarian) 0.0827 µM
0.197 µM: TGI (UACC-62 melanoma)
0.255 µM: TGI (COLO 205 colon)
0.598 µM: TGI (MALME-3M melanoma)
0.18 µM: TGI (SNB-75 CNS)
0.198 µM: TGI (MOLT-4 leukemia)
0.107 µM: TGI (SK-MEL-5 melanoma)
0.454 µM: TGI (HCC-2998 colon)
0.208 µM: TGI (NCI-H23 lung)
0.6 µM: TGI (SK-MEL-28 melanoma)
> 100 µM: TGI (HOP-18 NSCLC) | TGI (DLD-1 colon) | TGI (K-562 leukemia) | TGI (SF-539 CNS) | TGI (KM12 colon) | TGI (NCI-H460 lung) | TGI (HCT-15 colon) | TGI (TK-10 renal) | TGI (KM20L2 colon) | TGI (SNB-19 CNS) | TGI (SW-620 colon) | TGI (SN12C renal) | TGI (U251 CNS) | TGI (786-0 renal) | TGI (UO-31 renal) | TGI (IGROV1 ovarian) | TGI (A549 NSCLC)
0.236 µM: TGI (M14 melanoma)
0.0285 µM: TGI (RPMI-8226 leukemia)
0.305 µM: TGI (NCI-H226 lung)
0.0223 µM: TGI (OVCAR-3 ovarian)
0.238 µM: TGI (SF-268 CNS)
0.602 µM: TGI (OVCAR-5 ovarian)
19.3 µM: TGI (CCRF-CEM leukemia)
0.393 µM: TGI (DMS 114 small cell lung)
0.473 µM: TGI (OVCAR-4 ovarian)
> 73.4 µM: TGI (SK-OV-3 ovarian)
0.0312 µM: TGI (RXF 393 renal)
0.337 µM: TGI (HOP-92 NSCLC)

Cc1ccccc1-n1c(=S)[nH]c2c(sc(=O)n2-c2ccccc2C)c1=O
> 100 µM: TGI (HOP-18 NSCLC) | TGI (DLD-1 colon) | TGI (K-562 leukemia) | TGI (SK-OV-3 ovarian) | TGI (SNB-78 CNS) | TGI (UACC-257 melanoma) | TGI (SF-539 CNS) | TGI (KM12 colon) | TGI (NCI-H460 lung) | TGI (DMS 114 small cell lung) | TGI (HCT-15 colon) | TGI (OVCAR-3 ovarian) | TGI (M19-MEL melanoma) | TGI (HCC-2998 colon) | TGI (HCT-116 colon) | TGI (KM20L2 colon) | TGI (CCRF-CEM leukemia) | TGI (UACC-62 melanoma) | TGI (SNB-19 CNS) | TGI (SK-MEL-2 melanoma) | TGI (A498 renal) | TGI (NCI-H226 lung) | TGI (RPMI-8226 leukemia) | TGI (RXF-631 renal) | TGI (SW-620 colon) | TGI (SK-MEL-5 melanoma) | TGI (SF-268 CNS) | TGI (SK-MEL-28 melanoma) | TGI (MOLT-4 leukemia) | TGI (SN12C renal) | TGI (U251 CNS) | TGI (RXF 393 renal) | TGI (ACHN renal) | TGI (NCI-H23 lung) | TGI (EKVX NSCLC) | TGI (HL-60(TB) leukemia) | TGI (OVCAR-5 ovarian) | TGI (DMS 273 small cell lung) | TGI (M14 melanoma) | TGI (OVCAR-4 ovarian) | TGI (HOP-62 NSCLC) | TGI (SR leukemia) | TGI (786-0 renal) | TGI (MALME-3M melanoma) | TGI (HT29 colon) | TGI (OVCAR-8 ovarian) | TGI (LXFL 529 NSCLC) | TGI (HOP-92 NSCLC) | TGI (SNB-75 CNS) | TGI (COLO 205 colon) | TGI (UO-31 renal) | TGI (IGROV1 ovarian) | TGI (A549 NSCLC) | TGI (SF-295 CNS) | TGI (CAKI-1 renal) | TGI (NCI-H522 lung)

CC(C)N(C(=O)C12C3C4C5(C(=O)O)C(C1C35I)C42C(=O)O)C(C)C (configuration not stated)
> 100 µM: TGI (DLD-1 colon) | TGI (K-562 leukemia) | TGI (SK-OV-3 ovarian) | TGI (SNB-78 CNS) | TGI (UACC-257 melanoma) | TGI (SF-539 CNS) | TGI (KM12 colon) | TGI (NCI-H460 lung) | TGI (DMS 114 small cell lung) | TGI (HCT-15 colon) | TGI (OVCAR-3 ovarian) | TGI (M19-MEL melanoma) | TGI (TK-10 renal) | TGI (HCC-2998 colon) | TGI (HCT-116 colon) | TGI (KM20L2 colon) | TGI (CCRF-CEM leukemia) | TGI (UACC-62 melanoma) | TGI (SNB-19 CNS) | TGI (A498 renal) | TGI (NCI-H226 lung) | TGI (RXF-631 renal) | TGI (SW-620 colon) | TGI (SK-MEL-5 melanoma) | TGI (SF-268 CNS) | TGI (SK-MEL-28 melanoma) | TGI (MOLT-4 leukemia) | TGI (SN12C renal) | TGI (U251 CNS) | TGI (ACHN renal) | TGI (NCI-H23 lung) | TGI (EKVX NSCLC) | TGI (HL-60(TB) leukemia) | TGI (OVCAR-5 ovarian) | TGI (DMS 273 small cell lung) | TGI (M14 melanoma) | TGI (OVCAR-4 ovarian) | TGI (HOP-62 NSCLC) | TGI (SR leukemia) | TGI (786-0 renal) | TGI (MALME-3M melanoma) | TGI (HT29 colon) | TGI (OVCAR-8 ovarian) | TGI (LXFL 529 NSCLC) | TGI (HOP-92 NSCLC) | TGI (SNB-75 CNS) | TGI (COLO 205 colon) | TGI (UO-31 renal) | TGI (IGROV1 ovarian) | TGI (A549 NSCLC) | TGI (SF-295 CNS) | TGI (NCI-H522 lung)
